# Measurements from patent US20180258180A1, “COMBINATION THERAPY INVOLVING ANTIBODIES AGAINST CLAUDIN 18.2 FOR TREATMENT OF CANCER” (Ganymed Pharmaceuticals AG, priority 2012, published 2018).
# Columns and labels:
# [1] = Repeated dose toxicity study in mice; assay type: in vivo; conditions: weekly administration for 3 months, highest dose levels 400 mg/kg
# From the text: This compartimentalization is lost upon malignant transformation rendering the epitope drugable by IMAB362.
# [2] = system: NUGC-4 cells expressing CLDN18.2; test: IMAB362 ADCC with ZA/IL-2 cultivated PBMCs on NUGC-4 cells (luciferase); assay type: cell-based, human; conditions: PBMCs cultivated 14 days with ZA/IL-2, NUGC-4 targets
# Description: Specific killing was determined in luciferase assays; cf. FIG. 14a. […] NUGC-4 served as target cells.
# [3] = system: NCI-N87~CLDN18.2 xenograft tumors; test: Combination of IMAB362 and EOF regimen on NCI-N87~CLDN18.2 xenografts; assay type: in vivo, nude mice
# Description: NCI-N87˜CLDN18.2 xenograft tumors were inoculated by injection of 1×10^7 NCI-N87˜CLDN18.2 cells subcutaneous into the flank of 9 mice for each treatment group. […] IMAB362 treatment was continued weekly. Tumor size and animal health was monitored semi-weekly. […] The size of s.c. tumors was measured twice weekly (mean+SEM; *p<0.05). […] Mice were sacrificed, when tumor reached a volume of 1400 mm^3.
# [4] = system: CLDN18.2-transfected HEK293 cells; test: IMAB362 with ZA/IL-2 induced Vγ9Vδ2 T cells on HEK293~CLDN18.2 tumors in NSG mice; assay type: in vivo; conditions: 200 μg semi-weekly, in the presence of human γδ T cells and ZA (and IL-2)
# Description: NSG mice lack mature T cells, B cells, natural killer (NK) cells, multiple cytokine signaling pathways, and they have many defects in innate immunity, whereas the niches in the primary and secondary immunological tissues are permissive to colonization by human immune cells.
# NSG mice were inoculated subcutaneously with 1×10^7˜CLDN18.2-transfected HEK293 cells. On the same day, mice received 8×10^6 human PBMCs enriched for Vγ9Vδ2 T cells, which were cultured for 14 days in ZA-supplemented medium. […] To maintain human T cells functional, IL-2 was administered semi-weekly and ZA weekly. […] In addition to 9 mice treated as described, two control groups of mice were established.
substance,measurement,setting,value
"IMAB362: chimeric IgG1 antibody directed against CLDN18.2, developed by Ganymed Pharmaceuticals AG",tolerability of repeated doses i.v.,[1],well tolerated
same,IMAB362-dependent ADCC activity,[2],Strong
same,tumor growth compared to control mice,"[3]; IMAB362 800 μg weekly, EOF i.p. day 4, 11, 18, 25",highly significant suppressed tumor growth
same,median survival,[3]; saline control 59 days,76 days
same,outgrowth of CLDN18.2-positive tumors,[4],significantly inhibited and nearly abrogated
